Measured values taken from ChEMBL document CHEMBL5226286, “The application of isatin-based multicomponent-reactions in the quest for new bioactive and druglike molecules” (Eur J Med Chem, 2021).
In brackets after ≈: the same amount, converted by molar mass.

Assays:
[1] = test system: CCRF-CEM; assay: Antiproliferative activity against human CCRF-CEM cells; type: functional, cell-based
[2] = test system: SK-OV-3; assay: Antiproliferative activity against human SK-OV-3 cells; type: functional, cell-based
[3] = test system: Staphylococcus aureus; assay: Antibacterial activity against Staphylococcus aureus by agar well diffusion method; type: functional
[4] = test system: Escherichia coli; assay: Antibacterial activity against Escherichia coli by agar well diffusion method; type: functional
[5] = test system: Bacillus subtilis; assay: Antibacterial activity against Bacillus subtilis by agar well diffusion method; type: functional
[6] = Antiproliferative activity against human U87 cells; type: functional, cell-based, U-87MG ATCC; conditions: U-87 MG
[7] = test system: HepG2; assay: Antiproliferative activity against human HepG2 cells by MTT reduction assay; type: functional, cell-based
[8] = test system: SK-N-SH; assay: Antiproliferative activity against human SK-N-SH cells by MTT reduction assay; type: functional, cell-based
[9] = test system: MCF7; assay: Antiproliferative activity against human MCF7 cells by MTT reduction assay; type: functional, cell-based
[10] = test system: A549; assay: Antiproliferative activity against human A549 cells by MTT reduction assay; type: functional, cell-based
[11] = test system: HeLa; assay: Cytotoxicity against human HeLa cells incubated for 24 hrs by MTT reduction assay; type: functional, cell-based
[12] = test system: HeLa; assay: Cytotoxicity against human HeLa cells; type: functional, cell-based
[13] = test system: MCF7; assay: Cytotoxicity against human MCF7 cells; type: functional, cell-based
[14] = test system: A549; assay: Cytotoxicity against human A549 cells; type: functional, cell-based
[15] = test system: Tobacco mosaic virus; assay: Antiviral activity against Tobacco mosaic virus assessed as protection effect relative to control; type: functional
[16] = test system: Tobacco mosaic virus; assay: Antiviral activity against Tobacco mosaic virus assessed as curative effect relative to control; type: functional
[17] = test system: Tobacco mosaic virus; assay: Antiviral activity against Tobacco mosaic virus assessed as inactivation effect relative to control; type: functional
[18] = molecular target: T1, NAD-dependent protein deacetylase sirtuin-2 (Homo sapiens, UniProt Q8IXJ6); assay: Inhibition of sirtuin 2 (unknown origin)
T1 sequence (Q8IXJ6 whole entry): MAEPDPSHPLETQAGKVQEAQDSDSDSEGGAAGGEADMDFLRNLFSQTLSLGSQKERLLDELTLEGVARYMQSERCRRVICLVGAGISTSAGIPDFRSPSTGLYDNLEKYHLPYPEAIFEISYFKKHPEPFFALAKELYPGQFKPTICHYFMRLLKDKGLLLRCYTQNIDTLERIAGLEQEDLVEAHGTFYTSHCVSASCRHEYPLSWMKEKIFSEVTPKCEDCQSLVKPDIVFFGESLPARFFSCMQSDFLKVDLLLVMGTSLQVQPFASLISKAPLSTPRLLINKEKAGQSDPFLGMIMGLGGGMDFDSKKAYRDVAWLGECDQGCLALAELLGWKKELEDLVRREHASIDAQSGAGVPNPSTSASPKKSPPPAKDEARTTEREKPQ

[19] = test system: K562; assay: Antiproliferative activity against human K562 cells; type: functional, cell-based
[20] = test system: A549; assay: Antiproliferative activity against human A549 cells; type: functional, cell-based
[21] = test system: PC-3; assay: Antiproliferative activity against human PC-3 cells; type: functional, cell-based
[22] = test system: HeLa; assay: Growth inhibition of human HeLa cells at 20 micromol relative to control; type: functional; conditions: dose 20 µmol
[23] = test system: MDA-MB-435; assay: Antiproliferative activity against human MDA-MB-435 cells; type: functional, cell-based
[24] = test system: MDA-MB-231; assay: Growth inhibition of human MDA-MB-231 cells at 20 micromol relative to control; type: functional; conditions: dose 20 µmol
[25] = test system: DU-145; assay: Cytotoxicity against human DU-145 cells incubated for 48 hrs by MTT assay; type: functional, cell-based; conditions: DU-145, 48 h
[26] = test system: HepG2; assay: Growth inhibition of human HepG2 cells at 20 micromol relative to control; type: functional; conditions: dose 20 µmol
[27] = test system: HCT-116; assay: Cytotoxicity against human HCT-116 cells; type: functional, cell-based
[28] = test system: HCT-116; assay: Antiproliferative activity against human HCT-116 cells; type: functional, cell-based
[29] = test system: HepG2; assay: cells; type: functional, cell-based; conditions: Homo sapiens
[30] = test system: Huh-7; assay: cells; type: functional, cell-based; conditions: Homo sapiens
Description: Antiproliferative activity against human Huh-7 cells

[31] = cells; type: functional, cell-based; conditions: Homo sapiens, HCCC9810
Description: Antiproliferative activity against human HCCC9810 cells

[32] = test system: Staphylococcus aureus; assay: microbe, parasite or virus in culture
[33] = test system: Bacillus subtilis; assay: Antibacterial activity against Bacillus subtilis; type: functional
[34] = test system: Escherichia coli; assay: microbe, parasite or virus in culture

SMILES: O=C1/C(=C/c2ccccc2)CNC[C@]12[C@@H](c1ccccc1)C1CCCN1[C@]21C(=O)Nc2ccccc21 (stereo partly drawn)
- IC50 [1]: 25.2 µM
- IC50 [2]: 38.9 µM

SMILES: CC1(C)CC(=O)C2=C(C1)N(c1ccc(Cl)cc1)C(=O)C21C2=C(Nc3ccccc31)c1ccccc1C2=O (stereo not drawn)
- MIC [3]: 16 µg/mL (≈ 31.6 µM)
- MIC [4]: 64 µg/mL (≈ 126 µM)
- MIC [5]: 8 µg/mL (≈ 15.8 µM)

SMILES: O=NN(CCCl)C(=O)NCCCl [CARMUSTINE]
- IC50 [6]: 3.9 µM

SMILES: Cc1cc2c(cc1C)C(Cl)=C(C1C3CCCN3C3(C(=O)Nc4ccc([N+](=O)[O-])cc43)C1C(=O)c1ccccc1)CCC2 (stereo not drawn)
- IC50 [7]: 20 µM
- IC50 [8]: 11 µM
- IC50 [9]: 7.3 µM
- IC50 [10]: 5.6 µM
- IC50 [11]: 3.8 µM

SMILES: CC1(C)CC(=O)C2=C(C1)N(c1ccccc1)C(=O)C21C2=C(Nc3ccc([N+](=O)[O-])cc31)c1ccccc1C2=O (stereo not drawn)
- MIC [3]: 16 µg/mL (≈ 30.9 µM)
- MIC [4]: 128 µg/mL (≈ 247 µM)
- MIC [5]: 16 µg/mL (≈ 30.9 µM)

SMILES: CCOC(=O)C1=C(C(=O)OCC)C2(C(=O)Nc3ccccc32)N2CCCC12 (stereo not drawn)
- IC50 [12]: 8.3 µM
- IC50 [13]: 3.3 µM
- IC50 [14]: 2 µM

SMILES: COc1ccc([C@@H]2CN(C)[C@]3(C(=O)N(C)c4ccccc43)[C@]23Oc2cc(O)ccc2C3=O)cc1
- Activity [15]: 51.2%
- Activity [16]: 47.3%
- Activity [17]: 55.1%

SMILES: CCOC(=O)C1=C(N)Oc2cc(C)oc(=O)c2C12C(=O)Nc1ccc(Br)cc12 (stereo not drawn)
- IC50 [18]: 124 µM

SMILES: CC1(C)CC(=O)C2=C(C1)OC(N)=C(C#N)C21C(=O)N(CCCCCCCCCCBr)c2ccccc21 (stereo not drawn)
- IC50 [6]: 2.5 µM

SMILES: Cc1noc([C@@H]2[C@H]3CCCN3[C@]3(C(=O)N(C)c4ccc(F)cc43)[C@@]23C(=O)N(C)c2ccccc23)c1[N+](=O)[O-]
- IC50 [19]: 25 µM
- IC50 [20]: 39.7 µM
- IC50 [21]: 51.6 µM

SMILES: COc1cccc2c1C(=O)c1c(O)c3c(c(O)c1C2=O)C[C@@](O)(C(=O)CO)C[C@@H]3O[C@H]1C[C@H](N)[C@H](O)[C@H](C)O1 [DOXORUBICIN]
- growth inhibition (GI) [22]: 76.1%
- IC50 [23]: 0.09 µM
- IC50 [7]: 5.4 µM
- growth inhibition (GI) [24]: 76%
- IC50 [25]: 1.8 µM
- growth inhibition (GI) [26]: 79.1%
- IC50 [8]: 6.3 µM
- IC50 [27]: 2.4 µM

SMILES: CCOC(=O)C1=C(C(=O)OCC)C2(NC1CC(C)C)C(=O)Nc1ccccc12 (stereo not drawn)
- IC50 [12]: > 50 µM
- IC50 [13]: 5 µM
- IC50 [14]: 4.5 µM

SMILES: O=C(c1c[nH]c2ccccc12)[C@@H]1[C@@H](c2ccc(Cl)cc2Cl)[C@@H]2CSCN2[C@@]12C(=O)Nc1ccccc12
- IC50 [28]: 9 µM
- IC50 [29]: 7 µM
- IC50 [21]: 6 µM

SMILES: O=C1OC(c2ccccc2)=N[C@@]12[C@H](c1ccc(C(F)(F)F)cc1)[C@H]1CCCN1[C@]21C(=O)Nc2ccccc21
- IC50 [30]: 7.9 µM
- IC50 [31]: 7.2 µM

SMILES: Cc1nn(-c2ccccc2)c2c1C1(C(=O)Nc3ccc(Br)cc31)C1=C(CCCC1=O)O2 (stereo not drawn)
- MIC [32]: 128 µg/mL (≈ 269 µM)
- MIC [33]: 12 µg/mL (≈ 25.2 µM)
- MIC [34]: 256 µg/mL (≈ 537 µM)

SMILES: Cc1nn(-c2ccccc2)c2c1C1(C(=O)Nc3ccc([N+](=O)[O-])cc31)C1=C(CC(C)(C)CC1=O)O2 (stereo not drawn)
- MIC [32]: 32 µg/mL (≈ 68 µM)
- MIC [33]: 64 µg/mL (≈ 136 µM)
- MIC [34]: 128 µg/mL (≈ 272 µM)

SMILES: O=C(N[C@H](CO)[C@H](O)c1ccc([N+](=O)[O-])cc1)C(Cl)Cl [CHLORAMPHENICOL]
- MIC [32]: 8 µg/mL (≈ 24.8 µM)
- MIC [33]: 4 µg/mL (≈ 12.4 µM)
- MIC [34]: 4 µg/mL (≈ 12.4 µM)

SMILES: CNC(=O)c1cc(Oc2ccc(NC(=O)Nc3ccc(Cl)c(C(F)(F)F)c3)cc2)ccn1 [SORAFENIB]
- IC50 [30]: 7.1 µM
- IC50 [31]: > 10 µM

SMILES: O=C(c1c(O)c2ccccc2[nH]c1=O)[C@@H]1[C@@H](c2ccccc2Cl)C(c2ccccc2)N[C@@]12C(=O)Nc1ccccc12 (stereo partly drawn)
- IC50 [27]: 7.1 µM
